Series [1] addresses T1, NKCC1 (Homo sapiens, UniProt P55011).
T1 construct: host or cells: HEK293
T1 sequence (P55011 1-1212): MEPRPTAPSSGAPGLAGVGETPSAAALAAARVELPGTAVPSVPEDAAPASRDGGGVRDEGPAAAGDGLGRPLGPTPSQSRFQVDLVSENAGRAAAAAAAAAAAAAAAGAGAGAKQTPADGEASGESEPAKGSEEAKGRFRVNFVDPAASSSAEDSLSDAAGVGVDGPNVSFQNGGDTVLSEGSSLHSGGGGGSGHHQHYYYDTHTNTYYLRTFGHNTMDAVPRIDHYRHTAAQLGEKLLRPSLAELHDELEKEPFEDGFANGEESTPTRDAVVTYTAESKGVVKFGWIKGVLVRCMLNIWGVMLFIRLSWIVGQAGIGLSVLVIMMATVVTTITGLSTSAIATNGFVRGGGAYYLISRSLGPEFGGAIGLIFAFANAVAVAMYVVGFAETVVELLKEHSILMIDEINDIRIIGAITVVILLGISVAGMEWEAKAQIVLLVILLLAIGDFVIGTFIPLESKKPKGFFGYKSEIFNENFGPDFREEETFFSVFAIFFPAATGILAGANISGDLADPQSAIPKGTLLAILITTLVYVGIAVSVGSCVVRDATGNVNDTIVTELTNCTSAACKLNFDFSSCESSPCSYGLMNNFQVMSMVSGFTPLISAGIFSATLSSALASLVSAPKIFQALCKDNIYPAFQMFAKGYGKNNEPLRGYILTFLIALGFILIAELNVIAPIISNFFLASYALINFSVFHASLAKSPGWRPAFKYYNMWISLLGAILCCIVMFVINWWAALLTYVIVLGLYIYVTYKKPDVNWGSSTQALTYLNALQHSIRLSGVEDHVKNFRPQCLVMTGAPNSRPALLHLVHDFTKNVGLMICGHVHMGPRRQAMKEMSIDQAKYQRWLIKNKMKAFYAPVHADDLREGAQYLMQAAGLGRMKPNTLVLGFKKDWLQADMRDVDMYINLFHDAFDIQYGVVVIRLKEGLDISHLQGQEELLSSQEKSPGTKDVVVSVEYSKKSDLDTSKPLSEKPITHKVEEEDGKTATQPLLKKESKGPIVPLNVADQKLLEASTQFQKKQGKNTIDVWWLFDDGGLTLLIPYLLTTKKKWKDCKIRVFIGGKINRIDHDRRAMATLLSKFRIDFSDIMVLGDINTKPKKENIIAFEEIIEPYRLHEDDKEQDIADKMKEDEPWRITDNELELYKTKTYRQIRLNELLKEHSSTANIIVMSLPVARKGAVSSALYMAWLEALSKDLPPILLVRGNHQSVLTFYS
The series can be described thus: Cl- influx assay in NKCC1-transfected HEK293 cells. It counts as cell-based. The following applies: for Inhibition 10 μM Cl- influx (%): NKCC1-transfected HEK293 cells; for inhibition at 100 µM: HEK293, read-out: Inhibition 100 μM Cl- influx (%). On the procedure:
HEK293 cells were cultured in Dulbecco’s modified Eagle’s medium (DMEM) supplemented with 10% fetal bovine serum, 1% L-glutamine, 100 U/mL penicillin, and 100 μg/mL streptomycin and maintained at 37 °C in a 5% CO2 humidified atmosphere. To assess NKCC1 and NKCC2 activity (Cl^– influx assay), 3 million HEK cells were plated in a 10 cm cell-culture dish and transfected with a transfection mixture comprising 5 mL of DMEM, 4 mL of Opti-MEM, 8 μg of DNA plasmid coding for NKCC1 (PRK-NKCC1 obtained from Medical Research Council and the University of Dundee), NKCC2 (OriGene plasmid #RC216145) subcloned in PRK5 plasmid, or mock control (empty vector), together with 8 μg of a plasmid coding for the Cl^–-sensitive variant of the membrane-targeted fluorescent protein YFP, mbYFPQS (Addgene plasmid #80742),[53] and 32 μL of Lipofectamin 2000. To assess KCC2 activity (Tl influx assay), cells were transfected with 8 μg of KCC2[54] subcloned in the PRK5 plasmid or mock control (empty vector) and 16 μL of Lipofectamin 2000. After 4 h, the cells were collected and plated in 96-well black-walled, clear-bottomed plates at a density of 2.5 × 10^4. After 48 h, cells were used for the Cl^– or Tl influx assays. All reagents were purchased from Life Technologies, unless otherwise specified.
Transfected cells were treated with 10 μM or 100 μM bumetanide (as positive controls), DMSO (as the negative control), or with each of our compounds in 100 μL/well of a Cl^–-free hypotonic solution (67.5 mM Na^+ gluconate, 2.5 mM K^+ gluconate, 15 mM HEPES pH 7.4, 50 mM glucose, 1 mM Na2HPO4, 1 mM NaH2PO4, 1 mM MgSO4, and 1 mM CaSO4). After 30 min of incubation, plates were loaded into a Victor 3V (PerkinElmer) multiplate reader equipped with an automatic liquid injector system, and fluorescence of Cl^–-sensitive mbYFPQS was recorded with excitation at 485 nm and emission at 535 nm. For each well, fluorescence was first recorded for 20 s of the baseline and for 60 s after delivery of a NaCl concentrated solution (74 mM final concentration in the assay well). Fluorescence of Cl^–-sensitive mbYFPQS is inversely correlated to the intracellular Cl^– concentration;[53] therefore, chloride influx into the cells determined a decrease in mbYFPQS fluorescence. To represent the fluorescent traces in time, we normalized the fluorescence value for each time point to the average of the fluorescence value of the first 20 s of the baseline (ΔF/F0). To quantify the average effects as represented by the bar plots, we expressed the decrease in fluorescence upon NaCl application as the average of the last 10 s of ΔF/F0 normalized traces. Moreover, for each experiment, to account for the contribution of Cl^– changes that were dependent on transporters/exchangers other than NKCC1 or NKCC2, we subtracted the value of the last 10 s of ΔF/F0 normalized traces obtained from mock-transfected cells (either control or treated) from the respective ΔF/F0 value obtained from the cells transfected with NKCC1 or NKCC2. We then presented in the figures all the data as a percentage of the fluorescence decrease versus the value of the control DMSO.

Series [2] in a line: Aqueous kinetic solubility in PBS pH 7.4. It is filed as physicochemical. The following applies: phosphate buffered saline (PBS); aqueous kinetic solubility from 10 mM DMSO solution in PBS pH 7.4; target concentration 250 μM (final DMSO 2.5%). On the procedure:
1. Aqueous kinetic solubility.
30 µL aliquots of 10 mM DMSO stock solution of the test compound were incubated in Phosphate
Buffered Saline (PBS) at pH 7.4 at 25°C for 24h. After centrifugation the dissolved compound in the
supernatant was quantified by LC-MS/MS.
Aqueous kinetic solubility was determined by UV quantification at
215 nm. […]

Series [3] in a line: In vitro metabolic stability in mouse liver microsomes. The following applies: tissue homogenate, pH 7.4. On the procedure: 1. Aqueous kinetic solubility. […]
3. In vitro mouse microsomial stability. […]
microsomes (Sekisui Xenotech, LCC), 0.1M Tris-HCl buffer (pH 7.4), and 10% DMSO. The final […]
After pre-incubation, the cofactors (NADPH, G6P, G6PDH, MgCl2 pre-dissolved in 0.1M Tris-HCl) were added to the incubation mixture and the incubation was continued at 37 °C for 1h. At each time point (0, 5, 15, 30, 60 min), 30µL of incubation mixture was diluted with 200 µL cold acetonitile spiked with 200 nM of warfarin as internal standard, followed by centrifugation at 3500 g for 30 min. The supernatant was further diluted with H2O (1:1) for analysis.
An aliquot of 200 µl of the supernatant was removed, and the concentration of the test compound was […]
quantified by LC-MS/MS. The percentage of the test compound remaining at each time point relative […]
to t=0 was calculated. The half-lives (t½) were determined by a one-phase decay equation using a […]
non-linear regression of compound concentration vs time.
(Liver microsomes are vesicles of endoplasmic reticulum, rich in cytochrome P450 enzymes.)

≈ marks a conversion by molar mass, not a printed value.

Broadly, the inhibition is the percentage by which the read-out fell short of the control. A word on the solubility: it is the concentration that dissolves in the medium under given conditions. A low value points to little dissolved substance. As a reminder, the half-life is the time in which the quantity being followed falls by half. A low value points to fast loss.

As for `CN(C)S(=O)(=O)c1cc(C(=O)O)ccc1NCCCCCC(F)(F)F` [Compound 28, 3-(-N,N-Dimethylsulfamoyl)-4-(6,6,6-trifluorohexylamino)benzoic Acid], in series [1], the “Inhibition 10 μM Cl- influx (%)” value is on record as “Inactive” and the inhibition at 100 µM was 12.6 ± 4.1%. Further, the solubility at 24 h in series [2] came out at 249 µM (≈ 95.2 µg/mL). Further, the half-life at 5 μM in series [3] was more than 1 h.
`COCCNc1ccc(C(=O)O)cc1S(=O)(=O)N(C)C` [Compound 29, 3-(-N,N-Dimethylsulfamoyl)-4-(2-methoxyethylamino)benzoic Acid]: the inhibition at 10 µM in series [1] (HEK293, read-out: Inhibition 10 μM Cl- influx (%)) amounted to 1.4 ± 2.7%. In addition, in series [1], the inhibition at 100 µM came to 4.1 ± 5%. The molecule further gave a solubility at 24 h in series [2] of 237 µM (≈ 71.7 µg/mL). The molecule further came in with a half-life at 5 μM in series [3] of more than 1 h.
With `COCCCCNc1ccc(C(=O)O)cc1S(=O)(=O)N(C)C` [Compound 30, 3-(-N,N-Dimethylsulfamoyl)-4-(4-methoxybutylamino)benzoic Acid], in series [1], the “Inhibition 10 μM Cl- influx (%)” value is listed as “Inactive” and the inhibition at 100 µM is 5.2 ± 3.7%. In series [2], the solubility at 24 h amounted to 247 µM (≈ 81.6 µg/mL). For the same molecule, the half-life at 5 μM in series [3] was more than 1 h.
